Results as given in the CheMixHub viscosity set.
± gives the uncertainty stated by the source.

Test: xn = mol fraction of the nth substance listed

CC(=O)Oc1ccccc1C(=O)O + CCCCO
viscosity [mPa·s], 101 kPa
Conditions | x1 = 0.0007 | x1 = 0.00094 | x1 = 0.00118 | x1 = 0.00141 | x1 = 0.00165 | x1 = 0.00189 | x1 = 0.00236
293.15 K | 2.93 ± 0.067 | 2.931 ± 0.067 | 2.932 ± 0.067 | 2.933 ± 0.067 | 2.934 ± 0.067 | 2.935 ± 0.067 | 2.938 ± 0.067
298.15 K | 2.57 ± 0.059 | 2.571 ± 0.06 | 2.572 ± 0.06 | 2.573 ± 0.06 | 2.574 ± 0.06 | 2.575 ± 0.06 | 2.576 ± 0.06
303.15 K | 2.26 ± 0.053 | 2.262 ± 0.053 | 2.262 ± 0.053 | 2.263 ± 0.053 | 2.264 ± 0.053 | 2.265 ± 0.053 | 2.266 ± 0.053
308.15 K | 2.001 ± 0.047 | 2.002 ± 0.047 | 2.003 ± 0.047 | 2.005 ± 0.047 | 2.005 ± 0.047 | 2.007 ± 0.047 | 2.009 ± 0.047
310.15 K | 1.9 ± 0.045 | 1.901 ± 0.045 | 1.901 ± 0.045 | 1.902 ± 0.045 | 1.903 ± 0.045 | 1.903 ± 0.045 | 1.905 ± 0.045
313.15 K | 1.766 ± 0.042 | 1.767 ± 0.042 | 1.767 ± 0.042 | 1.768 ± 0.042 | 1.768 ± 0.042 | 1.769 ± 0.042 | 1.769 ± 0.042

CCCCCCCCC(=O)O + CCCCCCCCCCCC(=O)O
100 kPa, x2 = 0.25
Conditions | viscosity [mPa·s]
293.15 K | 10.12 ± 0.23
298.15 K | 8.636 ± 0.2
303.15 K | 7.443 ± 0.17
308.15 K | 6.47 ± 0.15
313.15 K | 5.669 ± 0.13
318.15 K | 5.003 ± 0.11
323.15 K | 4.444 ± 0.1

CCOCCn1cc[n+](C)c1.C[C@@H](O)[C@H](N)C(=O)[O-] + O
Conditions | viscosity [mPa·s]
298.15 K, 100 kPa, x2 = 0.492 | 991.4 ± 100

CCCC(=O)[O-].OCC[NH2+]CCO + CC(=O)O.NCCO
viscosity [mPa·s], 101.3 kPa
Conditions | x2 = 0.1516 | x2 = 0.2854 | x2 = 0.4059 | x2 = 0.5163 | x2 = 0.6146 | x2 = 0.7052 | x2 = 0.7885 | x2 = 0.8646 | x2 = 0.9348
293.15 K | 1991 ± 120 | 2150 ± 130 | 2309 ± 150 | 2468 ± 160 | 2628 ± 170 | 2787 ± 180 | 2946 ± 200 | 3105 ± 210 | 3264 ± 220
298.15 K | 1330 ± 77 | 1434 ± 85 | 1538 ± 92 | 1642 ± 100 | 1746 ± 110 | 1850 ± 120 | 1955 ± 120 | 2059 ± 130 | 2163 ± 140
303.15 K | 906.1 ± 50 | 972.3 ± 54 | 1039 ± 59 | 1105 ± 63 | 1171 ± 68 | 1237 ± 73 | 1303 ± 78 | 1370 ± 83 | 1436 ± 87
308.15 K | 631.9 ± 33 | 675.2 ± 36 | 718.4 ± 39 | 761.7 ± 42 | 804.9 ± 44 | 848.2 ± 47 | 891.4 ± 50 | 934.7 ± 53 | 978 ± 56
313.15 K | 450.1 ± 22 | 479.1 ± 24 | 508.1 ± 26 | 537.1 ± 28 | 566.1 ± 30 | 595.1 ± 32 | 624.1 ± 34 | 653.1 ± 36 | 682.1 ± 38
318.15 K | 327 ± 16 | 347 ± 17 | 366.9 ± 18 | 386.9 ± 19 | 406.8 ± 21 | 426.8 ± 22 | 446.7 ± 23 | 466.7 ± 24 | 486.6 ± 26
323.15 K | 242 ± 11 | 256 ± 12 | 270.1 ± 13 | 284.1 ± 14 | 298.1 ± 14 | 312.2 ± 15 | 326.2 ± 16 | 340.2 ± 17 | 354.3 ± 18

CC1COC(=O)O1 (centres undefined) + CO
Conditions | viscosity [mPa·s]
298 K, 101.3 kPa, x1 = 0.0206 | 0.5726 ± 0.004
298 K, 101.3 kPa, x1 = 0.0401 | 0.593 ± 0.0041
298 K, 101.3 kPa, x1 = 0.0604 | 0.6164 ± 0.0042
298 K, 101.3 kPa, x1 = 0.0808 | 0.6364 ± 0.0043
298 K, 101.3 kPa, x1 = 0.1018 | 0.6594 ± 0.0045
298 K, 101.3 kPa, x1 = 0.2016 | 0.7765 ± 0.0052
298 K, 101.3 kPa, x1 = 0.301 | 0.9078 ± 0.006
298 K, 101.3 kPa, x1 = 0.401 | 1.058 ± 0.0069
298 K, 101.3 kPa, x1 = 0.5016 | 1.229 ± 0.008
298 K, 101.3 kPa, x1 = 0.6002 | 1.418 ± 0.0091
298 K, 101.3 kPa, x1 = 0.7006 | 1.635 ± 0.01
298 K, 101.3 kPa, x1 = 0.8004 | 1.877 ± 0.012
298 K, 101.3 kPa, x1 = 0.9007 | 2.148 ± 0.014
298.15 K, 101.33 kPa, x2 = 0.0512 | 2.266 ± 0.017
298.15 K, 101.33 kPa, x2 = 0.0983 | 2.097 ± 0.015
298.15 K, 101.33 kPa, x2 = 0.1406 | 1.958 ± 0.014
298.15 K, 101.33 kPa, x2 = 0.1883 | 1.811 ± 0.013
298.15 K, 101.33 kPa, x2 = 0.2587 | 1.616 ± 0.011
298.15 K, 101.33 kPa, x2 = 0.343 | 1.414 ± 0.0098
298.15 K, 101.33 kPa, x2 = 0.3986 | 1.298 ± 0.0089
298.15 K, 101.33 kPa, x2 = 0.4723 | 1.167 ± 0.0079
298.15 K, 101.33 kPa, x2 = 0.5124 | 1.107 ± 0.0075
298.15 K, 101.33 kPa, x2 = 0.5819 | 1.001 ± 0.0067
298.15 K, 101.33 kPa, x2 = 0.6762 | 0.8678 ± 0.0058
298.15 K, 101.33 kPa, x2 = 0.758 | 0.7707 ± 0.0052
298.15 K, 101.33 kPa, x2 = 0.8297 | 0.6887 ± 0.0047
298.15 K, 101.33 kPa, x2 = 0.9256 | 0.5981 ± 0.0042
298.15 K, 101.33 kPa, x2 = 0.9495 | 0.5805 ± 0.0041
308.15 K, 101.33 kPa, x2 = 0.0512 | 1.895 ± 0.014
308.15 K, 101.33 kPa, x2 = 0.0983 | 1.757 ± 0.013
308.15 K, 101.33 kPa, x2 = 0.1406 | 1.648 ± 0.012
308.15 K, 101.33 kPa, x2 = 0.1883 | 1.533 ± 0.011
308.15 K, 101.33 kPa, x2 = 0.2587 | 1.377 ± 0.0098
308.15 K, 101.33 kPa, x2 = 0.343 | 1.213 ± 0.0085
308.15 K, 101.33 kPa, x2 = 0.4723 | 1.002 ± 0.0069
308.15 K, 101.33 kPa, x2 = 0.5124 | 0.948 ± 0.0065
308.15 K, 101.33 kPa, x2 = 0.5819 | 0.8651 ± 0.0059
308.15 K, 101.33 kPa, x2 = 0.6762 | 0.7581 ± 0.0052
308.15 K, 101.33 kPa, x2 = 0.8297 | 0.6034 ± 0.0042
308.15 K, 101.33 kPa, x2 = 0.8931 | 0.5517 ± 0.0039
308.15 K, 101.33 kPa, x2 = 0.9256 | 0.5282 ± 0.0038
308.15 K, 101.33 kPa, x2 = 0.9495 | 0.5118 ± 0.0037
318.15 K, 101.33 kPa, x2 = 0.0512 | 1.594 ± 0.012
318.15 K, 101.33 kPa, x2 = 0.0983 | 1.48 ± 0.011
318.15 K, 101.33 kPa, x2 = 0.1406 | 1.393 ± 0.01
318.15 K, 101.33 kPa, x2 = 0.1883 | 1.296 ± 0.0095
318.15 K, 101.33 kPa, x2 = 0.2587 | 1.169 ± 0.0084
318.15 K, 101.33 kPa, x2 = 0.343 | 1.034 ± 0.0074
318.15 K, 101.33 kPa, x2 = 0.3986 | 0.9607 ± 0.0068
318.15 K, 101.33 kPa, x2 = 0.4723 | 0.8683 ± 0.0061
318.15 K, 101.33 kPa, x2 = 0.5124 | 0.8232 ± 0.0058
318.15 K, 101.33 kPa, x2 = 0.5819 | 0.7459 ± 0.0052
318.15 K, 101.33 kPa, x2 = 0.8297 | 0.5281 ± 0.0038
318.15 K, 101.33 kPa, x2 = 0.8931 | 0.4829 ± 0.0036
318.15 K, 101.33 kPa, x2 = 0.9256 | 0.4621 ± 0.0034
318.15 K, 101.33 kPa, x2 = 0.9495 | 0.4486 ± 0.0034
